For 13 compounds, inhibition and IC50 results are on record in patent US20220213070A1, “COMPOUNDS INHIBITING TDG ACTIVITY” (EPITAS BIOSCIENCES (SHANGHAI) CO., LTD., priority 2019, published 2022).

The target in experiment [1] is T1, TDG (Homo sapiens, UniProt Q13569). The experiment is described as follows: TDG inhibitory activity of compounds in cells (caC-cmv-firefly luciferase reporter, HEK 293T TDG KO cells transfected with pCDNA4-TDG). The class given is cell-based. To be noted: read-out: Inhibition rate on TDG activity. The protocol:
Experimental Determination of TDG Inhibitory Activity of Compounds in Cells
The operation steps of this example are as follows:
(1) Preparation of Methylation Reporter Plasmid:
(a) SAM with a stock solution concentration of 32 mM was diluted with ultrapure water to 1600 μM;
(b) The reaction system was prepared according to the following ratio: 30 μl ultrapure water, 5 μl 10×NEBuffer 2, 5 μl diluted SAM, 1 μg pCpGL-CMV-firefly plasmid, 1 μl SssI methylase (4 U/μl); 50 μl in total, the reaction was carried out at 37° C. for 2 hours;
(c) The mixture was heated at 65° C. for 20 minutes. Then 0.2% SDS was added, the reaction was carried out at 80° C. for 10 min; and then 1 μl Proteinase K was added, the reaction was carried out at 50° C. for 1 h;
(d) The methylated plasmid was recovered with Dr. GenTLE® sedimentation aid (TAKARA).
(2) Preparation of 5fC/5caC pCpGL-CMV-Firefly Reporter Plasmid
(a) The following 10× reaction system was prepared:
(b) The reaction system was prepared according to the following ratio:
(c) The reaction was carried out at 37° C. for one hour;
(d) 24 μg Tet1 protein was added for the second time and the reaction was continued for one hour;
(e) SDS was added to a final concentration of 0.5%, 80° C., 10 minutes, then 1 μl Proteinase K was added, 55° C. overnight.
(f) The treated caC-cmv-firefly plasmid was recovered with Dr. GenTLE® sedimentation aid (TAKARA) and was quantified.
(3) Using the Luciferase Activity Assay Method to Detect the Inhibitory Rate of Small Molecule Compounds on Intracellular TDG Enzyme Activity
In a 96-well plate, the reaction system and operation flow of each well were as follows:
(a) 1 ng caC-cmv-firefly, Ing pCpGL-CMV-Relina and 150 ng pCDNA4-TDG or 150 ng pCDNA4-myc plasmid, were diluted to 75 ul Opti-MEM, mixed well and allowed to stand still for 5 minutes;
(b) 2 ul transfection reagent (Hieff Trans™ Liposomal transfection Reagent (0.5 ul/well, YEAEEN, Cat #40802)) was diluted in 100 ul Opti-MEM, mixed well and allowed to stand still for 5 minutes;
(c) 75 ul of (a) and (b) were mixed respectively, and allowed to stand still at room temperature for 20 minutes;
(d) HEK 293T TDG KO cells were digested with trypsin, the cells were collected and counted, and the suspension cell concentration was adjusted to 4×10^5/ml;
(e) 50 ul of the mixture (c) was added to each well, and at the same time 100 ul of the diluted cell suspension was added to the same well, and they were mixed well.
(f) After the cells adhering to the wall, different concentrations of small molecule compounds to be tested were added to each well.
(g) Incubation was performed in a 37° C. CO2 incubator for 72 hours. The supernatant was removed and the cells were quickly freezed at −80° C.
(h) Before detecting the luciferase activity, the cells to be tested were removed from −80° C. and allowed to stand still at room temperature for 30 minutes. Following the instructions of Dual-Glo® Luciferase Reagent (PROMEGA), the firefly fluorescence value and Renilla fluorescence value of each well were detected.
(i) The firefly fluorescence value was divided with the Renilla fluorescence value of each well; 96-well plate Z′ and experimental window was calculated by the ratio of transfected caC-cmv-firefly, pCpGL-CMV-Relina, pCDNA4-TDG plasmid mixture plus DMSO experimental group to transfected caC-cmv-firefly, pCpGL-CMV-Relina, pCDNA4-myc plasmid mixture plus DMSO experimental group, and the relative enzyme activity inhibition rate of each compound was calculated.
According to the biological method described in this example, the selected compounds of the present invention were analyzed, and the results are shown in Table 2. Among them, “+” in Table 2 refers to the compound's TDG inhibitory activity at a concentration of 10 μM≤25%; “++” refers to the compound's TDG inhibitory activity at a concentration of 10 μM>25%.

Experiment [2] relates to Lung cancer cell line Calu-1. Kind of experiment: Inhibition of the growth of Calu-1 cells (CellTiter-Glo, 72 hours). The class given is cell-based. To be noted: Homo sapiens, 72 hours of culturing, read-out: Inhibitory activity on alu-1 cell growth IC50. As for the experimental part: 14.2 Experimental Determination of Compound's Inhibitory Rate on the Growth of Calu-1 Cells
Lung cancer cell line Calu-1 was cultured in 90% McCoy's 5A medium (BI, 01-075-1ACS)+10% fetal bovine serum (Gibco, 10270106), placed in a CO2 incubator (37° C., 5% CO2, 95% air) for culturing. Calu-1 cells were digested with trypsin (Gibco, 12604-021) and seeded in a 384-well plate at a density of 500 cells per well. The medium was 50 μL and it was cultured overnight at 37° C. in an incubator. On the next day, different concentrations of test compounds were added, and the final concentration of DMSO was 0.1%. After 72 hours of culturing, the cells were taken out for test. The cell culture medium from the 384-well plate to be tested was removed, and fresh culture medium premixed with CTG was immediately added: the ratio of the culture medium to CellTiter-Glo® 2.0 reagent (Promega, G9243) was 2:1, 30 ul was added to each well. The plate was shaken at room temperature for 20 minutes, and then a multi-function plate reader (TECAN, Infinite 200 Pro) was used according to the reagent instructions to determine the cell survival.
According to the biological method described in this example, the selected compounds of the present invention were analyzed, and the results are shown in Table 1. Among them, “++” in Table 1 refers to the inhibitory activity on the growth of calu-1 cells with IC50≤5 μM; “+” refers to the inhibitory activity on the growth of calu-1 cells with IC50>5 μM.
For orientation: ATP-based viability assays read luminescence as a measure of living cells.

In experiment [3] the target is T1, TDG. The experiment is described as follows: Inhibition of TDG mismatch repair activity (fluorescent G·U double-stranded DNA probe T1-T2). The class given is biochemical. The following applies: TDG 100 nM/L, preincubated with compound 37° C. 30 minutes; probe 30 nM; read-out: Inhibitory activity on TDG mismatch repair IC50. The text has this: 14.1 Experimental Determination of Compound's Inhibitory Rate on TDG Mismatch Repair Activity
(1) A double-stranded DNA probe T1-T2 containing uracil bases was synthesized. The nucleotide sequence of the T1 chain was: 5′-FAM-TAAUGTGAATGGAGCTGAAAT-biotin-3′; The nucleotide sequence of the T2 chain was 5′-ATTTCAGCTCCATTCACGTTA-3′. Using PCR annealing program, the T1 strand and T2 strand were complementary to form a double-stranded DNA probe T1-T2.
(2) The reaction system and steps for each well of a 96-well plate were as follows: a. TDG (100 nM/L) was mixed with different concentrations of compounds, and the mixture was incubated at 37° C. for 30 minutes. The composition of the reaction buffer was: 20 mM HEPES pH7.5, 100 mM NaCl, 0.2 mM EDTA, 2.5 mM MgCl2; b. The double-stranded DNA probe T1-T2 was added to the mixture to obtain a final volume of 100 μL, with a concentration of 30 nM, and the mixture was incubated at 25° C. for 30 min; c. 1 μL of streptavidin magnetic beads were added to the reaction solution and fully bound the biotin-labeled DNA for 1 hour; d. NaOH was added to the reaction solution to a final concentration of 200 mM, and the mixture was incubated at room temperature for 30 minutes; e. Under the action of a magnetic stand the streptavidin magnetic beads were adsorbed to the tube wall, the supernatant was transferred to a new 96-well plate, and placed in a Tecan microplate reader for fluorescence measurement. The parameter settings were: excitation wavelength 485 nm; emission wavelength 520 nm. A linear curve between fluorescence intensity and TDG concentration was constructed, R^2=0.9968, and the linear range was 0-50 nM/L;
According to the biological method described in this example, the selected compounds of the present invention were analyzed, and the results are shown in Table 1. Among them, “++” in Table 1 refers to the inhibitory activity for TDG mismatch repair with IC50≤5 μM; “+” refers to the inhibitory activity for TDG mismatch repair with IC50>5 μM.

T1 sequence (Q13569 whole entry): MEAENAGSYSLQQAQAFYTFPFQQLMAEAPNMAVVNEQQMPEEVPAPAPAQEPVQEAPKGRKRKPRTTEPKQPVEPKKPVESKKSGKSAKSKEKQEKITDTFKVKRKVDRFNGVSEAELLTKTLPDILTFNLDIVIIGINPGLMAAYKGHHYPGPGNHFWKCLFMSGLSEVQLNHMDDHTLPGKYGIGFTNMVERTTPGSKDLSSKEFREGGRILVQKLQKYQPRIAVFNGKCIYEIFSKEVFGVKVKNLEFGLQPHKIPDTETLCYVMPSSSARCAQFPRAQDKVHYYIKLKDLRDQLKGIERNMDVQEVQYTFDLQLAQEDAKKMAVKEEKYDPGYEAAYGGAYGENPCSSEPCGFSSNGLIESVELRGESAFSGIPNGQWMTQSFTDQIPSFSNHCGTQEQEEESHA

Regarding `CC(C)(C)OC(=O)NCC1(O)CN(CCC(=O)c2ccc3c(c2)OCCO3)C1` [Compound 23, tert-butyl ((1-(3-(2,3-dihydrobenzo[b][1,4]dioxin-6-yl)-3-oxopropyl)-3-hydroxyazetidin-3-yl)methyl)carbamate], the inhibition (in general, the percentage by which the read-out fell short of the control) at 10 µM at TDG [1] is below 25%. The IC50 (in experiment [2]; on TDG [3]) was above 5 µM throughout.

Take `O=C(CCn1cc(-c2ccccc2)cn1)c1ccc2c(c1)OCCO2` [Compound 28, 1-(2,3-dihydrobenzo[b][1,4]dioxin-6-yl)-3-(4-phenyl-1H-pyrazol-1-yl)propan-1-one]: at TDG [1], the inhibition at 10 µM is below 25%. The IC50 (in experiment [2]; at TDG [3]) was above 5 µM in each case.

In the case of `O=C(CCn1ccc(-c2ccc(F)cc2)cc1=O)c1ccc2c(c1)OCCO2` [Compound 18, 1-(3-(2,3-dihydrobenzo[b][1,4]dioxin-6-yl)-3-oxopropyl)-4-(4-fluorophenyl)pyridine-2(1H)-one], the inhibition at 10 µM at TDG [1] is above 25%. Besides, the IC50 (usually the concentration at which inhibition is half-maximal) in experiment [2] was above 5 µM; on TDG [3], at most 5 µM.

For the compound `O=C(CCCN1Cc2ccccc2C1)c1ccc2c(c1)OCCO2` [Compound 31, 1-(2,3-dihydrobenzo[b][1,4]dioxin-6-yl)-4-(isoindolin-2-yl)butan-1-one], the inhibition at 10 µM on TDG [1] is below 25%. The IC50 (in experiment [2]; on TDG [3]) was above 5 µM each time.

Turning to `O=C(CCN1Cc2ccccc2C1)c1ccc(O)c(O)c1` [Compound 39, 1-(3,4-dihydroxyphenyl)-3-(isoindolin-2-yl)propan-1-one], the inhibition at 10 µM at TDG [1] was below 25%. Also, the IC50 (in experiment [2]; on TDG [3]) was above 5 µM throughout.

With `N#Cc1ccc(C2CCN(CCC(=O)c3ccc4c(c3)OCCO4)C2)cc1` (stereo not drawn) [Compound 50, 4-(1-(3-(2,3-dihydrobenzo[b][1,4]dioxin-6-yl)-3-oxopropyl)pyrrolidin-3-yl)benzonitrile], the inhibition at 10 µM at TDG [1] is above 25%. The IC50 (in experiment [2]; on TDG [3]) was at most 5 µM throughout.

Consider `O=C(CCN1C(=O)CSC1=S)c1ccc2c(c1)OCCO2` [Compound 22, 3-(3-(2,3-dihydrobenzo[b][1,4]dioxin-6-yl)-3-oxopropyl)-2-thiothiazolidine-4-one], for which the inhibition at 10 µM at TDG [1] was below 25%. The IC50 (in experiment [2]; at TDG [3]) was above 5 µM throughout.

Turning to `O=C(CCN1Cc2ccccc2C1)c1ccc2c(c1)C(=O)CCO2` [Compound 36, 6-(3-(isoindolin-2-yl)propionyl)chroman-4-one], the inhibition at 10 µM on TDG [1] is below 25%. Besides, the IC50 (in experiment [2]; on TDG [3]) was at most 5 µM in each case.

With `N#Cc1ccc2c(c1)CN(CCC(=O)c1ccc3c(c1)OCCO3)C2` [Compound 8], the inhibition at 10 µM on TDG [1] was below 25%. For the same compound, the IC50 in experiment [2] is above 5 µM; at TDG [3] it was at most 5 µM.

As for `O=C(CCN1Cc2ccccc2C1)c1ccc2c(c1)CCO2` [Compound 34, 1-(2,3-dihydrobenzofuran-5-yl)-3-(isoindolin-2-yl)propan-1-one], the inhibition at 10 µM at TDG [1] was below 25%. In addition, the IC50 (in experiment [2]; at TDG [3]) was above 5 µM in each case.

Take `O=C(CCN1Cc2ccc(Cl)cc2C1)c1ccc2c(c1)OCCO2` [Compound 4, 3-(5-chloroisoindolin-2-yl)-1-(2,3-dihydrobenzo[b][1,4]dioxin-6-yl)propan-1-one]: the inhibition at 10 µM at TDG [1] was below 25%. Further, the IC50 in experiment [2] is above 5 µM; at TDG [3], at most 5 µM.

Take `O=C(CCN1CCC(c2ccc(Br)cc2)C1)c1ccc2c(c1)OCCO2` (stereo not drawn) [Compound 47, 3-(3-(4-bromophenyl)pyrrolidin-1-yl)-1-(2,3-dihydrobenzo[b][1,4]dioxin-6-yl)propan-1-one]: the inhibition at 10 µM at TDG [1] is below 25%. Further, the IC50 (in experiment [2]; on TDG [3]) was at most 5 µM in each case.

Consider `O=C1CCN(CCC(=O)c2ccc3c(c2)OCCO3)C1` [Compound 17, 1-(3-(2,3-dihydrobenzo[b][1,4]dioxin-6-yl)-3-oxopropyl)pyrrolidin-3-one], for which the inhibition at 10 µM on TDG [1] was below 25%. The figures for the IC50 (in experiment [2]; at TDG [3]) were above 5 µM and at most 5 µM, respectively.
